In ChEMBL document CHEMBL3526141, “Characterization of human liver enzymes involved in the biotransformation of boceprevir, a hepatitis C virus protease inhibitor” (Drug Metab Dispos, 2011):
One block for each compound: values may come before it.

Key:
[1] = system: Liver cytosol; experiment: (§1) Ratio of Vmax to Km for drug metabolism in human liver cytosol assessed as (1R,2S,5S)-N-((2R,3R)-4-amino-1-cyclobutyl-3-hydroxy-4-oxobutan-2-yl)-3-((S)-2-(3-tert-butylureido)-3,3-dimethylbutanoyl)-6,6-dimethyl-3-azabicyclo[3.1.0]hexane-2-carboxamide formation per mg protein after 60 mins by LC-MS/MS/FSA method; format: ADME; conditions: 1 h
[2] = system: Liver cytosol; experiment: as §1, with “Drug” for “Ratio of Vmax to Km for drug”, “cytosol at 20 uM” for “cytosol”, “at 20 uM” for “per mg protein”, “mins in presence of AKR inhibitor ibuprofen” for “mins”; format: ADME; conditions: 1 h
[3] = biological target: Cytochrome P450 3A4 (Homo sapiens, UniProt P08684); experiment: Drug metabolism assessed as human CYP3A4-mediated compound formation from 5 uM [14C]boceprevir after 120 mins by LC-MS/FSA method relative to total [14C]boceprevir; format: ADME; conditions: recombinant enzyme, 2 h, BLD = below limit of detection
Sequence of Cytochrome P450 3A4 (P08684 whole entry): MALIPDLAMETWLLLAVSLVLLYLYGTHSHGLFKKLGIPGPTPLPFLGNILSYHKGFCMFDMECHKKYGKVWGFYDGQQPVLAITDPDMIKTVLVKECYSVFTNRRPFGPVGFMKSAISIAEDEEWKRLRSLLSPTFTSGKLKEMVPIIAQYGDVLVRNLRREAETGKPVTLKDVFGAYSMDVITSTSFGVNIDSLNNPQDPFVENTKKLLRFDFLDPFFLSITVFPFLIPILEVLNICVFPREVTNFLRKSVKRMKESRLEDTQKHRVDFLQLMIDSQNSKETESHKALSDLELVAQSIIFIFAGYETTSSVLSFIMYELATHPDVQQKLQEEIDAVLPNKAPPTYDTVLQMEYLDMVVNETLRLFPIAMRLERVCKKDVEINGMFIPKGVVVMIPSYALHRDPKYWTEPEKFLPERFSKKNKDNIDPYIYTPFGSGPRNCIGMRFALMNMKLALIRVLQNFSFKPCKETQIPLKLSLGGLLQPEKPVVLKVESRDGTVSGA

[4] = biological target: T1, Aldo-keto reductase family 1 member C2 (Homo sapiens, UniProt P52895); experiment: Drug metabolism in human recombinant AKR1C2 expressing HEK293 cells treated with 20 uM boceprevir assessed as 1 mM BNPP-mediated inhibition of AKR1C2-mediated metabolite formation after 120 mins in presence of NADPH by LC-MS/MS/FSA method; format: ADME, cell-based; parameters: interact cpd dose 1 mM; conditions: hek293, 2 h
T1 sequence (P52895 whole entry): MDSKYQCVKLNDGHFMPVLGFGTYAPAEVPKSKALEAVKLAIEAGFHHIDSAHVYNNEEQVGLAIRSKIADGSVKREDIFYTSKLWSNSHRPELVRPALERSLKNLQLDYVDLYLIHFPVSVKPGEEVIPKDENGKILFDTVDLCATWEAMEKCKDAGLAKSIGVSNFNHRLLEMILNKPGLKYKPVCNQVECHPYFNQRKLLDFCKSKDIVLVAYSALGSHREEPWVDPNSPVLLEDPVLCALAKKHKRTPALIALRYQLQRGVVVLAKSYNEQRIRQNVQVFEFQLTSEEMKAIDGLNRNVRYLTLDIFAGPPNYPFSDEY

[5] = Drug metabolism in human liver mitochondria treated with 20 uM assessed as compound formation in presence of NADPH generating system by LC-MS/MS/FSA method; format: ADME
[6] = system: Liver cytosol; experiment: Drug metabolism in human liver cytosol treated with 20 uM [14C]boceprevir assessed as quercetin-mediated inhibition of metabolite formation by LC-MS/MS/FSA method; format: ADME, tissue-based
[7] = Drug metabolism in human liver S9 fraction treated with 20 uM assessed as compound formation in presence of NADPH generating system by LC-MS/MS/FSA method; format: ADME, subcellular
[8] = system: Liver cytosol; experiment: (§2) Drug metabolism in human liver cytosol at 20 uM assessed as (1R,2S,5S)-N-((2S,3R)-4-amino-1-cyclobutyl-3-hydroxy-4-oxobutan-2-yl)-3-((S)-2-(3-tert-butylureido)-3,3-dimethylbutanoyl)-6,6-dimethyl-3-azabicyclo[3.1.0]hexane-2-carboxamide formation at 20 uM after 60 mins in presence of AKR inhibitor diazepam by LC-MS/MS/FSA method; format: ADME; conditions: 1 h
[9] = system: Liver cytosol; experiment: as §2, with “ibuprofen” for “diazepam”; format: ADME; conditions: 1 h
[10] = system: Liver cytosol; experiment: (§3) Drug metabolism in human liver cytosol at 20 uM assessed as (1R,2S,5S)-N-((2S,3R)-4-amino-1-cyclobutyl-3-hydroxy-4-oxobutan-2-yl)-3-((S)-2-(3-tert-butylureido)-3,3-dimethylbutanoyl)-6,6-dimethyl-3-azabicyclo[3.1.0]hexane-2-carboxamide formation in presence of BNPP by LC-MS/MS/FSA method; format: ADME
[11] = Drug excretion in human feces; format: ADME; parameters: dosed compound name [14C]-SCH 534128
[12] = biological target: T2, Aldo-keto reductase family 1 member C3 (Homo sapiens, UniProt P42330); experiment: Activity of human recombinant AKR1C3 expressed in HEK293 cells assessed as ratio of Vmax to Km for (1R,2S,5S)-N-((2S,3R)-4-amino-1-cyclobutyl-3-hydroxy-4-oxobutan-2-yl)-3-((S)-2-(3-tert-butylureido)-3,3-dimethylbutanoyl)-6,6-dimethyl-3-azabicyclo[3.1.0]hexane-2-carboxamide formation per mg protein after 120 mins in presence of NADPH by LC-MS/MS/FSA method; format: ADME, cell-based; conditions: hek293, 2 h
T2 sequence (P42330 whole entry): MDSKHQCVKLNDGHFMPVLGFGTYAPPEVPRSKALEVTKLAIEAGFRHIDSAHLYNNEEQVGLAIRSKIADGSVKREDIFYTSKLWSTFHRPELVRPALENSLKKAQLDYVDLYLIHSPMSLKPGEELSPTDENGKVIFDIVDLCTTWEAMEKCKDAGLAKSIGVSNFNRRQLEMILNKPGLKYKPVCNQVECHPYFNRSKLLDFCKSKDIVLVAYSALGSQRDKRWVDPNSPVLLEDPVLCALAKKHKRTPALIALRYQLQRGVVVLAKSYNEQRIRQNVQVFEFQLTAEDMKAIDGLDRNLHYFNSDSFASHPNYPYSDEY

[13] = system: Liver cytosol; experiment: Drug metabolism in human liver cytosol at 20 uM assessed as (1R,2S,5S)-N-((2S,3R)-4-amino-1-cyclobutyl-3-hydroxy-4-oxobutan-2-yl)-3-((S)-2-(3-tert-butylureido)-3,3-dimethylbutanoyl)-6,6-dimethyl-3-azabicyclo[3.1.0]hexane-2-carboxamide formation in presence of mefenamic acid by LC-MS/MS/FSA method; format: ADME
[14] = as §3, with “S9 fraction” for “cytosol”, “phenolphthalein” for “BNPP”; format: ADME, subcellular; conditions: s9, 20 µM
[15] = Drug metabolism in human liver S9 fraction at 20 uM assessed as (1R,2S,5S)-N-((2S,3R)-4-amino-1-cyclobutyl-3-hydroxy-4-oxobutan-2-yl)-3-((S)-2-(3-tert-butylureido)-3,3-dimethylbutanoyl)-6,6-dimethyl-3-azabicyclo[3.1.0]hexane-2-carboxamide formation in presence of quercetin by LC-MS/MS/FSA method; format: ADME, subcellular; conditions: s9, 20 µM
[16] = biological target: T3, Cytochrome P450 4F12 (Homo sapiens, UniProt Q9HCS2); experiment: Drug metabolism assessed as human CYP4F12-mediated compound formation from 5 to 20 uM [14C]boceprevir after 120 mins by LC-MS/FSA method relative to total [14C]boceprevir; format: ADME; conditions: recombinant enzyme, 2 h
T3 sequence (Q9HCS2 whole entry): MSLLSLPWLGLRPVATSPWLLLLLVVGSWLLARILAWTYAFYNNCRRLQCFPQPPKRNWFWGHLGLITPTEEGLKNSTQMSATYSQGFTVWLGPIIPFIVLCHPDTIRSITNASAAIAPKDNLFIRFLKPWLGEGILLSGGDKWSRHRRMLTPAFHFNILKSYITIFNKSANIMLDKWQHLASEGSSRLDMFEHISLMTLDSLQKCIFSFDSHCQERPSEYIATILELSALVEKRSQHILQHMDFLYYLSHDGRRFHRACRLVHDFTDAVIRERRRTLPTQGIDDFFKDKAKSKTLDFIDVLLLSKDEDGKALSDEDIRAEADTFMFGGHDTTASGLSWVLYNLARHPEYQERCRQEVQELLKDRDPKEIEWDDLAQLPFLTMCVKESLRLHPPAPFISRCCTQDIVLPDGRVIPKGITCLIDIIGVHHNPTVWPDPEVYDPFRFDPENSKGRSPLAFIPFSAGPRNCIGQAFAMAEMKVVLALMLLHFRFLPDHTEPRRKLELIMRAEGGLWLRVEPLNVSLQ

Vmax/Km [1]: 30.9 µL/min
Compound recovery [2]: metabolite_not_detected
Compound recovery [3]: BLD
Structure (SMILES): CC(C)(C)NC(=O)N[C@H](C(=O)N1C[C@H]2[C@@H]([C@H]1C(=O)N[C@H](CC1CCC1)C(=O)C(N)=O)C2(C)C)C(C)(C)C

inhibition (INH) [4]: 82%
Compound recovery [5]: 7%
inhibition (INH) [6]: < 30%
Compound recovery [7]: 28%
Structure (SMILES): CC(C)(C)NC(=O)N[C@H](C(=O)N1C[C@H]2[C@@H]([C@H]1C(=O)N[C@@H](CC1CCC1)[C@@H](O)C(N)=O)C2(C)C)C(C)(C)C

Compound recovery [8]: metabolite_not_detected
Compound recovery [9]: metabolite_not_detected
Compound recovery [10]: metabolite_not_detected
Radiolabel recovery [11]: metabolite_not_detected
Vmax/Km [12]: 14.67 µL/min
Compound recovery [13]: metabolite_not_detected
Compound recovery [14]: metabolite_not_detected
Compound recovery [15]: metabolite_not_detected
Compound recovery [16]: metabolite_not_detected
Structure (SMILES): CC(C)(C)NC(=O)N[C@H](C(=O)N1C[C@H]2[C@@H]([C@H]1C(=O)NC(CC1CCC1)C(=O)C(N)=O)C2(C)C)C(C)(C)C (stereo partly specified) [BOCEPREVIR]
